# Patent publication US8796327B2, “Method for inhibiting production of cytokines of T helper cell type II and/or inhibiting production of chemokines using brazilin” (China Medical University, priority 2010, dated 2014)
# Experiments:
# c-maf mRNA = assay: Real-time PCR of c-maf mRNA in EL-4 T lymphoma cells; type: cell-based, mouse; settings: for Expression level of c-maf mRNA: PMA + cAMP stimulated EL-4 cells, corrected to HPRT
# Method: (§1) Then, at a density of 5×10^5 counts/ml, the T lymphoma cells were bred in a six-well culture dish, and at the 0th minute, brazilin of different concentrations (0.3, 1, 3, 10, or 30 micromole (μM)) was added into the cell culture solution at an amount of 1 μl/ml-cell culture solution. Then, the cells were put into the incubator to be cultured therein. 30 minutes later, at an amount of 1 μl/ml-cell culture solution, 5 μg/ml PMA and cAMP at a 250 mmol concentration were added to the cell culture solution to stimulate the expression of IL-4 and IL-5 of the T lymphoma cells. During the process of cell culture, the trypan blue exclusion assay was employed to observe effect of the brazilin on the cell viability, results of which are shown in Table 1 and FIG. 1.
# (§2) Expression of mRNA of IL-4, IL-5, GATA-3, c-maf, and T-bet were analyzed in a quantitative way through real-time polymerase chain reaction (PCR) by extracting RNA in the cells obtained in Experiment A (using an RNA purifying kit), converting the RNA into cDNA through reverse transcription, and using an ABI PRISM 7700 sequence detector (Applied Biosystems, Foster City, Calif., America) to analyze the gene expression of mRNA. The PCR was carried out under the following conditions: 50° C., 2 minutes; 95° C., 10 minutes; 60° C., 1 minute; then repeating this cycle forty times. A threshold cycle (or referred to as Ct) was used to represent the expression level of each gene, and an expression level of hypoxanthine-guanine phosphoribosy transferase (HPRT) genes of the endogenous control group was used for correction of the expression level of mRNA.
# IL-4 mRNA = assay: Real-time PCR of IL-4 mRNA in EL-4 T lymphoma cells; type: cell-based, mouse; settings: for Expression level of IL-4 mRNA: PMA + cAMP stimulated EL-4 cells, corrected to HPRT
# Method: as §1, §2
compound,measurement,setting,value
Oc1ccc2c(c1)OC[C@]1(O)Cc3cc(O)c(O)cc3[C@H]21 [brazilin],expression of mRNA of transcription factor c-maf,"c-maf mRNA; EL-4 cells, result in words",inhibited
same,Expression level of c-maf mRNA,c-maf mRNA; brazilin 0.3 μM,3.388 ± 0.2410
same,Expression level of c-maf mRNA,c-maf mRNA; brazilin 1 μM,3.318 ± 0.1177
same,Expression level of c-maf mRNA,c-maf mRNA; brazilin 3 μM,2.846 ± 0.2632
same,Expression level of c-maf mRNA,c-maf mRNA; brazilin 10 μM,1.826 ± 0.6278
same,Expression level of c-maf mRNA,c-maf mRNA; brazilin 30 μM,1.302 ± 0.1868
same,expression of mRNA of IL-4,"IL-4 mRNA; EL-4 cells, result in words",inhibited
same,Expression level of IL-4 mRNA,IL-4 mRNA; brazilin 0.3 μM,2.228 ± 0.4786
same,Expression level of IL-4 mRNA,IL-4 mRNA; brazilin 1 μM,2.028 ± 0.1794
same,Expression level of IL-4 mRNA,IL-4 mRNA; brazilin 3 μM,2.136 ± 0.2671
same,Expression level of IL-4 mRNA,IL-4 mRNA; brazilin 10 μM,1.835 ± 0.2712
same,Expression level of IL-4 mRNA,IL-4 mRNA; brazilin 30 μM,1.478 ± 0.1441
